The results in this text go back to patent publication US8067669B2, “Method for inducing resistance to fungal infection in transgenic plants using plant defense peptides” (The Curators Of The University Of Missouri, priority 2000, dated 2011).

The test system of assay [1] is P. capsici zoospores. Kind of assay: Encystment assay with phage-displayed peptides. It is filed as cell-based, Phytophthora capsici. The settings on record: phage 2.5×10^9 virion; 20 minute incubation at room temperature. The procedure: Following binding, the pathogen is observed for alterations in its development or ability to infect a host. […] The range of phage concentrations can vary, but generally ranges between 1 to 10×10^9 virion/μl. A negative control containing no phage is included in each screening. After an incubation period of usually about 20 minutes at room temperature, the number of zoospores encysted at each phage concentration is determined. Using this method it is possible to rationally select peptides of defined character and evaluate them for species- and life stage-specific induction of receptor-mediated functional responses, such a zoospore encystment. Peptides found to interfere with the development of a pathogen can be used to prevent or limit infection of a host with the pathogen.
Selected phage clones were isolated according to Smith and Scott (Methods in Enzymology, 217:228-257, 1993), and twice purified using polyethylene glycol as described above with the exception that phage were resuspended in distilled water instead of TBS. The virion concentration was calculated by measuring the absorbance at A269 (Smith and Scott, Methods in Enzymology, 217:228-257, 1993). Water droplets of approximately 20 μl containing about 400 freshly released zoospores were incubated with phage at two-fold serial dilutions so that they contained phage-bearing peptides at concentrations of either 1×10^10, 5×10^9, 2.5×10^9 or 1.25×10^9 virion/μl of droplet. A negative control received no phage and was used to monitor the amount of spontaneous encystment in the zoospore population. After a 20 minute incubation at room temperature, the number of encysted zoospores was counted using a microscope at 100× magnification. The virion concentration of phage was calculated according to Smith and Scott (Methods in Enzymology, 217:228-257, 1993).

The next assay deals with P. capsici cysts. Put plainly: Binding of phage-displayed peptides to cysts (eluted phage titered as TU). Set-up: species or system Phytophthora capsici. The settings on record: 5×10^10 TU phage.
Assay [2] concerns P. capsici zoospores. Put plainly: Binding of phage-displayed peptides to zoospores (eluted phage titered as TU). On the set-up: species or system Phytophthora capsici. Conditions: 5×10^10 TU phage with 200,000 zoospores, 30 minutes incubation. The procedure:
An aliquot of 10^11 transducing units (TU) from the f8-1 library (Petrinko et al., Protein Engineering, 9:797-801, 1996) was added to 10^6 freshly released P. capsici zoospores at room temperature in 4 ml of 50 mM LiCl and incubated for 30 minutes at room temperature with gentle agitation. The same procedure was used for the 188-4 library except in some cases P. sojae zoospores were used (Soj clones). The zoospores containing the bound phage were washed 10 times in 150 μl of 50 mM LiCl and centrifuged at 1000×g for 45 seconds to remove unbound phage. After the tenth wash, the bound phage were eluted with 200 μl of elution buffer (0.1 N HCl, glycine sufficient to bring pH to 2.2, 1 mg/ml bovine serum albumin). […] Selective enrichment of the zoospore-binding phage was monitored by calculating the percent yield after each round of selection as described in Smith and Scott (Methods in Enzymology, 217:228-257, 1993). This was done by calculating the total phage (expressed as transducing units) that was applied to the zoospores and measuring the total output of phage (as transducing units) that was recovered from the zoospores and expressing the result as a percentage. […]
Phage vector was included as a control treatment. […] Phage eluted from the zoospore population were titered in E. coli K91BluKan cells and expressed as total transducing units. […]

The test system of the next assay is U. appendiculatus. Put plainly: Inhibition of germling (germinated uredospore) growth. Conditions: phage-peptide clones, ~250 germinated spores with 3×10^12 at 20 C overnight; listed as clone 19. It is filed as cell-based, Uromyces appendiculatus. From the text:
Part D entails the generation of additional Sub-libraries by use of further rounds of biopanning including rounds 2, 3 and 4. Part B is repeated three times: • 1. For biopanning round 2, 4.2×10^11 TU phages from the 2nd Sub-library are used to produce Sub-library 3; • 2. For biopanning round 3, 5.6×10^11 TU phages amplified from the 2nd biopanning are used to produce Sub-library 4; and • 3. For biopanning round 4, 5.1×10^11 TU phages amplified from the 3rd biopanning are used to produce Sub-library 5. Colonies from biopanning-round 4 are picked, sequenced, and tested for inhibition of germling growth.
Part E entails testing for inhibition of uredospore growth. Incubate 30 ul of germinated spores (˜250) with 3×10^12 at 20 C overnight. Assess fungal germ tube growth (i.e. germling growth) and compare with water and f88, i.e. phage only without any display peptide, as controls.

Regarding “AAPDLQDAM (Random peptide insert) [Pc56]”, in the assay on P. capsici zoospores [1], the “level of encystment of P. capsici zoospores” value is “low levels of encystment”.

For “ADITDPMGA (Random peptide insert) [Pc64]”, the “level of encystment of P. capsici zoospores” value in the assay with P. capsici zoospores [1] was “high levels of encystment”.

In the case of “ADPPRTVST (Random peptide insert) [Pc78]”, the “level of encystment of P. capsici zoospores” value with P. capsici zoospores [1] was “high levels of encystment”.

For “ADRPSMSPT (Random peptide insert) [Pc87]”, the “phage eluted from cysts” value with P. capsici cysts was “less than 10^4 TU”. Further, the “phage eluted from zoospores” value in the assay with P. capsici zoospores [2] was “More than 10^7 TU”. Moreover, the “level of encystment of P. capsici zoospores” value in the assay on P. capsici zoospores [1] was “high levels of encystment”.

As for “AEHQNSAGP (Random peptide insert) [Pc45]”, in the assay with P. capsici zoospores [2], the “phage eluted from zoospores” value is “about 50,000 TU”. In addition, the “level of encystment of P. capsici zoospores” value in the assay on P. capsici zoospores [1] is on record as “low levels of encystment”.

Take “AGLTSPNDM (Random peptide insert) [Pc15B]”: in the assay on P. capsici zoospores [1], the “level of encystment of P. capsici zoospores” value is “low levels of encystment”.

In the case of “AVSPNVHDG (Random peptide insert) [Pc42]”, the “level of encystment of P. capsici zoospores” value with P. capsici zoospores [1] is “high levels of encystment”.

“NHVSTLKTRHRLIPF (Random peptide insert) [Pp 19]”: the “growth inhibition of U. appendiculatus (germlings)” value with U. appendiculatus is given as “inhibition”.
